# Data published in patent US20120003298A1, “METHODS FOR INDUCING AN IMMUNE RESPONSE” (priority 2010, published 2012).
# What was measured:
# [1] = Intrabladder application, serum cytokines (Luminex) and histology; assay type: in vivo, mouse
# Description: Female C57BU6 mice were anesthetized with ketamine/xylazine. The 50 microliter formulated compounds were intravesically administered for twenty minutes at each treatment. The treatment schedule and doses are in Table 35 and 36, respectively. The levels of cytokines (IL-6, IL-12, and TNF-alpha) were determined by Luminex assay. Paraffin sections were prepared and H & E staining performed.
# Inv-Myc mice = experiment: Mouse skin cancer model (Inv-Myc mice, Tamoxifen induction), topical creams; assay type: in vivo
# Description: The mice used are essentially discussed in Pelengaris, S., et al., (1999) Molecular Cell 3:565-77. Activation of c-myc in this model, such as by the application of Tamoxifen, leads to increased keratinocyte proliferation, reversible epidermal hyperplasia, and papillomatosis changes.
# Sex-matched 8-15 week old Inv-Myc mice were used for the study. The mice were shaved on the back 24 hours before the daily Tamoxifen induction (1 mg/200 microliters ethanol, day 0 to 7) to an area 5×3 cm^2. […] Mice were sacrificed on day 10. […] Sera were collected when mice were sacrificed and 2 hours after the first cream application in some instances.
# [2] = system: AY-27 rat bladder cancer cell-line; conditions: in vivo
# [3] = Intravenous pharmacokinetics in the mouse
# Description: An IV bolus was administered into the caudal vein at a dose of 1 mg/kg in 5 ml. The compound weight was 2.08/10.04 ml. 24 mice were studied. Sampling was obtained by exsanguination under anesthesia, at 5, 15, 30, 60, 240, and 480 minutes, and at 24 hours. […] Animals were sacrificed using ethyl ether at the conclusion of the experiment.
# Sample preparation: In a Sirocco filter plate, 100 microliters of plasma were added to 300 microliters of ACN/MeOH spiked with 5 microliters of IS (IV298 10 micrograms per ml) plus 10 microliters of 5% H3PO4. The plate was shaken for 10 minutes at 80 rpm and then filtered under vacuum for 5 minutes.
# Analytical method: LC/MS/MS: Premiere XE, Eluent: water (A) MeOH(B) plus 0.1% HCOOH gradient. 15% B to 100% B from 0.1 to 0.5, then isocratic 100% B up to 1.5 minutes, flow 0.8 ml/min; Column Acquity HPLC BEH C18 1.7 microm 2.1×50 mm, injection volume of 5 microliters in a T column at 50° C. ESI positive, MRM, Extractor 5V; Capillary 3.5 kV; T source 115° C.; T desolv. 450° C.
# Data analysis: Non-compartmental analysis WinNonlin 5.1; linear trapezoidal, uniform weight.
# CYP2C9 = molecular target: T1, CYP2C9 (Homo sapiens, UniProt P11712); experiment: Fluorescent High Throughput P450 assay, CYP2C9; assay type: biochemical
# T1 construct: purchased Gentest
# T1 sequence (P11712 whole entry): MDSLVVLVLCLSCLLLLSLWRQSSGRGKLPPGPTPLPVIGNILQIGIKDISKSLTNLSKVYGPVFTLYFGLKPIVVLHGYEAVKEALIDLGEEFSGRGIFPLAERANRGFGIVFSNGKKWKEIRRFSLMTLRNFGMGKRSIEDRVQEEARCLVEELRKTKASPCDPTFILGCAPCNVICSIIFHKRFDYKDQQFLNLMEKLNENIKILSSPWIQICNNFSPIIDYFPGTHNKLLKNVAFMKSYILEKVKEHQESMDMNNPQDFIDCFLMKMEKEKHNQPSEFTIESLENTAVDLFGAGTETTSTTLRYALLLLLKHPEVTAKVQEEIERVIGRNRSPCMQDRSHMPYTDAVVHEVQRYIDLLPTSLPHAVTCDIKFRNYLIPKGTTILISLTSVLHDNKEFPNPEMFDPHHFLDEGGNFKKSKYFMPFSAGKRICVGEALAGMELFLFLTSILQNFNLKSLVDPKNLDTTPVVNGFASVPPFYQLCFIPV
# Description: Inhibition of the P450 isoforms was measured in specific assays using specific substrates that become fluorescent upon CYP metabolism. Compounds, dissolved in ACN (acetonitrile) (CYP2E1, CYP2C8, CYP2B6, CYP3A5) or DMSO (all remaining isoforms), were tested in duplicate (n=2) in concentration-response curves (eight concentrations) in a 96-well plate containing incubation/NADPH regenerating buffer. Specific isoenzymes and substrates were added and incubated at 37° C. Reactions were terminated at different times, depending on the assays, and plates read on a Fluoroskan Ascent at the appropriate emission/excitation wavelengths. Concentration-response curves performed in duplicate for known inhibitors for each isoenzyme were tested in every assay as positive control.
# RAW.264 cells = experiment: Intracellular uptake in RAW.264 cells, LC-MS; assay type: in vitro ADME; conditions: 10 microM
# Description: 5×10^6 RAW.264 cells were adhered overnight in 10 cm tissue culture dishes. […] […] Supernatant (2 ml) and cells (pellets) were collected by trypsinization and frozen at […] for subsequent analysis by LC-MS.
# [4] = system: Escherichia coli WP2 uvrA; experiment: Bacterial mutation assay, Escherichia coli; assay type: cell-based
# Description: (§1) The five tester strains TA1535, TA1537, TA98, TA100 and WP2 uvrA were used. Experiments were performed both in the absence and presence of metabolic activation, using liver S9 fraction from rats pre-treated with phenobarbitone and betanaphthoflavone. SC12 was used as a solution in dimethylsulfoxide (DMSO).
# MB49 cells = experiment: Mouse bladder cancer model, intravesical treatment (Experiment 24); assay type: in vivo
# Description: A set of experiments was conducted with SC12 in various solutions, in a mouse bladder cancer model.
# 7-9 week old C57BU6 mice were implanted with 1×10^6 MB49 cells after 0.1% poly L lysine treatment on day 0. […] On day 11, mice were sacrificed and organs were harvested.
# [5] = Stability on storage by HPLC (solid or chloroform solution; temperature, light); conditions: for HPLC % at RRT = 1: SC12
# Description: At this point, a stability study was conducted on batch CH730/16/8g.
# The samples were analyzed at t=0 and after 20 days.
# human PBMCs = experiment: IL-6 secretion in human PBMCs, two batches of Compound A and SC12 (Example 4); assay type: cell-based; conditions: 5 months storage in DMSO at 4° C.
# Description: PBMCs were purified from two donors and plated into 96 well plates at 2×10^5 cells/well in RPMI media including human 2% heat inactivated AB serum, glutamine, Pen-strep and β-mercaptoethanol. The cells were treated with TLR7 agonists for 24 h in 4 doses. The conditioned media was removed for ELISA analyses for IL-6, and the EC50 value determined for each compound and each batch.
# All compounds were tested in four concentrations (10-1-0.1-0.01 micromolar).
# Concentrations of IL-6 were determined by ELISA from R&D Systems using the Microsoft Excel software. The results were analyzed in Graph Pad Prism in order to prepare dose-response curves, and for determination of EC50 values.
# [6] = system: Salmonella typhimurium TA1535, TA1537, TA98, TA100; experiment: Bacterial mutation assay, Salmonella typhimurium; assay type: cell-based
# Description: as §1
# [7] = In vivo pharmacodynamics, serum cytokines after intravenous injection; design: species or system mouse; conditions: 200 nmol intravenously
# Description: For in vivo pharmacodynamic experiments, 6- to 8-week old C57BU6 mice were intravenously injected with the unconjugated and phospholipid-conjugated TLR7 agonists (200 nmol). Sera were separated and kept at −20° C. until use. The levels of cytokines in the sera were measured by Luminex bead microassay. The minimum detection levels of IL-6 and TNF-alpha were 5 pg/mL and 10 pg/mL, respectively.
# human whole blood = experiment: Cytokine secretion in human whole blood assay, ELISA; assay type: cell-based; conditions: whole blood, 6 hours
# Description: Before drawing the blood, the compounds were added to 96 well round bottom plates in a 10× diluted sample at 20 ul. The compounds were diluted in RPMI media without serum but with antibiotics. Antibiotics were added at a 10× concentration. After drawing the blood, the whole blood sample was gently mixed to obtain a homogeneous sample, and 180 ul was added to each well.
# All compounds were setup in concentrations at 0-0.01-0.03-0.1-0.5-2.0-10.0 micromolar as the final concentration. Vehicle control was DMSO control, where we used the highest concentration used for the compounds. After addition of blood, all plates were gently agitated at 37° C. and 5% CO2 until harvest.
# For the 6 hours time point, the plate was centrifuged 500×g. Supernatant (SN) was transferred to a tube and centrifuged at 10.000×g for 10 min to get rid of cells and protein aggregates. The clarified supernatant was frozen at −80° C. until analysis.
# The SN was removed to another tube and centrifuged at 10.000×g for 10 min. to get rid of aggregates etc. The clarified supernatant was frozen at −80° C. until analysis.
# Concentrations of cytokines were determined by ELISA from R&D Systems. The results were analyzed in Graph Pad Prism in order to prepare dose-response
# curves, and for determination of EC50 values. FACS analysis was made by using Becton-Dickinson FACSDiva software and subsequently illustrated in Graph Pad Prism.
# [8] = 50.0-5000 micrograms/plate, absence or presence of S9
# [9] = up to 5000 micrograms/plate, absence or presence of S9 metabolism
compound,measurement,setting,value
CCCCCCCCCCCC(=O)OCC(COP(=O)(O)OCCNC(=O)c1ccc(Cn2c(=O)[nH]c3c(N)nc(OCCOC)nc32)cc1)OC(=O)CCCCCCCCCCC (centres unmarked) [SC12],serum IL-12,"[1]; day 0, 2 hour time point, intravesical about 207 nmoles in 50 μl",elevated levels of IL-12
same,"bladder histology, cell infiltration",[1]; day 7,immune cell infiltration in the bladder
same,serum IL-6,Inv-Myc mice; 2 hours after the first administration,less IL-6 than Aldara
same,Ki67 positive cells,Inv-Myc mice; Experiment 1,decreased Ki67 positive cells
same,gross appearance of skin,Inv-Myc mice; Experiment 1,redness and scaling
same,gross appearance of skin,Inv-Myc mice; Experiment 2,smooth and soft
same,skin thickness,Inv-Myc mice; Experiment 2,decreased development of skin thickness
same,acanthosis,"Inv-Myc mice; cream every other day, days 0-8",reduction in acanthosis
same,eczematous reaction,"Inv-Myc mice; mouse, in vivo",less eczematous reaction than Aldara (Imiquimod) cream
same,toxicity,[2],No signs of toxicity
same,adverse behavioral effects,[3]; IV 1 mg/kg,No adverse behavioral effects were noted
same,AUC INF obs,"[3]; IV bolus 1 mg/kg, plasma",12878 ng·min/mL
same,AUClast,"[3]; IV bolus 1 mg/kg, plasma",11744 ng·min/mL
same,inhibition of CYP2C9,CYP2C9,weak inhibition
same,Intracellular Concentration % of total,RAW.264 cells; Incubation 1 hours,18.5 % of total
same,Intracellular Concentration % of total,RAW.264 cells; Incubation 6 hours,20.6 % of total
same,Intracellular Concentration % of total,RAW.264 cells; Incubation 18 hours,21.4 % of total
same,toxicity to tester strains,[4]; [8],No toxicity was observed with any tester strain at any dose level
same,reverse mutation,[4]; [9],does not induce reverse mutation
same,serum IL-6 and TNF-alpha,"MB49 cells; Experiment 1, in Phosal 50, 50 microliters, 20 minutes, 2 h and 24 h",under the detection levels
same,"bladder histology, cell infiltration","MB49 cells; Experiment 4, SC12 0.38%, MB49 implanted bladder, day 11",more monocyte infiltration
same,HPLC % at RRT = 1,"[5]; Solid, RT and light, t = 20 days",RRT = 1: 87.8%
same,HPLC % at RRT = 1,"[5]; Solid, external T and light, t = 20 days",RRT = 1: 84.0%
same,HPLC % at RRT = 1,"[5]; Solution in CHCl3, RT and light, t = 0",RRT = 1: 90.3%
same,HPLC % at RRT = 1,"[5]; Solution in CHCl3, RT and light, t = 20 days",RRT = 1: 88.0%
same,stability compared with compound A,[5]; storage 20 days,more stable than compound A
same,activity after storage,human PBMCs,have not lost activity
same,toxicity to tester strains,[6]; [8],No toxicity was observed with any tester strain at any dose level
same,reverse mutation,[6]; [9],does not induce reverse mutation
same,time course of cytokine induction,[7],lower but sustained cytokine induction than the free ligand
same,serum proinflammatory cytokine levels,[7]; C57BL/6 mice,"induced similar levels of the proinflammatory cytokines IL-6, IL-12 and TNF-alpha"
same,IL-10 production,human whole blood,no IL-10 production was seen
